Experimental findings from PubChem BioAssay AID328 (DTP/NCI, 2004) are described below.

SMILES strings stand for the structures. Where “and” joins values, the source holds several entries; their conditions need not be identical. Equal values may be shown once. Inconclusive results and toxic doses are left out.

This assay has as its system BDF1 mice, P388 leukemia ip, median survival T/C. Kind of assay: NCI In Vivo Anticancer Drug Screen. Data for tumor model P388 Leukemia (intraperitoneal) in B6D2F1 (BDF1) mice. The settings on record: endpoint: median survival time, higher = longer survival. As to the method: The antitumor activity of compounds was measured in mice bearing transplantable tumors. Survival or tumor size were measured and the results are expressed as the measurement made in the treated group (T) divided by the measurement made in the vehicle treated control group (C). The tumor model used in this assay is P388 Leukemia (intraperitoneal) in B6D2F1 (BDF1) mice

[1] abbreviates: dose: 50.0 mg/kg/injection, schedule: Q01DX009 (ip), vehicle: saline with Tween-80.
[2] abbreviates: dose: 100.0 mg/kg/injection, schedule: Q01DX009 (ip), vehicle: saline with Tween-80.
[3] abbreviates: dose: 100.0 mg/kg/injection, schedule: Q01DX009 (ip), vehicle: Klucel (hydroxypropylcellulose) (HPC).
Setting [4] is: dose: 100.0 mg/kg/injection, schedule: Q04DX003 (ip), vehicle: Klucel (hydroxypropylcellulose) (HPC).
The mark [5] stands for this setting: dose: 200.0 mg/kg/injection, schedule: Q01DX009 (ip), vehicle: Klucel (hydroxypropylcellulose) (HPC).
The mark [6] stands for this setting: dose: 200.0 mg/kg/injection, schedule: Q04DX003 (ip), vehicle: Klucel (hydroxypropylcellulose) (HPC).
Where [7] appears, read: dose: 400.0 mg/kg/injection, schedule: Q04DX003 (ip), vehicle: Klucel (hydroxypropylcellulose) (HPC).
Setting [8] is: dose: 50.0 mg/kg/injection, schedule: Q04DX003 (ip), vehicle: water.
Setting [9] is: dose: 200.0 mg/kg/injection, schedule: Q01DX009 (ip), vehicle: saline with Tween-80.
Setting [10] is: dose: 100.0 mg/kg/injection, schedule: Q04DX003 (ip), vehicle: saline with Tween-80.
[11] abbreviates: dose: 200.0 mg/kg/injection, schedule: Q04DX003 (ip), vehicle: saline with Tween-80.
Where [12] appears, read: dose: 400.0 mg/kg/injection, schedule: Q04DX003 (ip), vehicle: saline with Tween-80.

Turning to `Cc1ccc(Nc2c3ccccc3nc3ccccc23)cc1`, the T/C is 109 % of control (dose: 100.0 mg/kg/injection, schedule: Q01DX001 (ip), vehicle: Klucel (hydroxypropylcellulose) (HPC)); 118 % of control (dose: 200.0 mg/kg/injection, schedule: Q01DX001 (ip), vehicle: Klucel (hydroxypropylcellulose) (HPC)); 113 % of control (dose: 400.0 mg/kg/injection, schedule: Q01DX001 (ip), vehicle: Klucel (hydroxypropylcellulose) (HPC)).

With `Cc1cc(O)c(C(C)C)cc1S(=O)(=O)O` (tested in a mixture with another compound), the T/C is, setting by setting: (dose: 37.5 mg/kg/injection, schedule: Q01DX009 (ip), vehicle: Klucel (hydroxypropylcellulose) (HPC)) 95 % of control; under setting [1], 100 % of control; under setting [2], 95 % of control; (dose: 150.0 mg/kg/injection, schedule: Q01DX009 (ip), vehicle: Klucel (hydroxypropylcellulose) (HPC)) 100 % of control; (dose: 150.0 mg/kg/injection, schedule: Q01DX009 (ip), vehicle: saline with Tween-80) 150 % of control.

With `CCOC(=O)c1cc(/C=C/c2ccccc2)[nH]c(=O)c1C#N`, the T/C is 91 % of control (dose: 25.0 mg/kg/injection, schedule: Q01DX009 (ip), vehicle: Klucel (hydroxypropylcellulose) (HPC)); 91 % of control (dose: 50.0 mg/kg/injection, schedule: Q01DX009 (ip), vehicle: Klucel (hydroxypropylcellulose) (HPC)); 95 % of control under setting [3]; 95 % of control under setting [4]; 92 % of control under setting [5]; 104 % of control under setting [6]. For the same compound, the T/C under setting [7] was 104 % of control.

Regarding `CC1=C(C)CC2C(=O)C=CC(=O)C2C1` (stereo not drawn), the T/C (dose: 12.5 mg/kg/injection, schedule: Q01DX009 (ip), vehicle: water) was 95 % of control; the T/C (dose: 25.0 mg/kg/injection, schedule: Q01DX009 (ip), vehicle: water) is 90 % of control; the T/C (dose: 25.0 mg/kg/injection, schedule: Q04DX003 (ip), vehicle: water) is 113 % of control; the T/C (dose: 50.0 mg/kg/injection, schedule: Q01DX009 (ip), vehicle: water) was 93 % of control; the T/C under setting [8] is 113 % of control; the T/C (dose: 100.0 mg/kg/injection, schedule: Q01DX009 (ip), vehicle: water) is 100 % of control. The T/C (dose: 100.0 mg/kg/injection, schedule: Q04DX003 (ip), vehicle: water) was 105 % of control and 112 % of control.

With `CCCCCCNC(=S)/N=C(\N)n1nc(C)cc1C`, the T/C is, setting by setting: under setting [1], 109 % of control; under setting [2], 99 % of control; under setting [9], 112 % of control.

Regarding `Cc1ccc(N2CCN(CCCN3CCN(c4ccc(Cl)cc4)CC3)CC2)cc1`, the T/C runs as follows: (dose: 50.0 mg/kg/injection, schedule: Q04DX003 (ip), vehicle: saline sonified) 100 % of control; (dose: 100.0 mg/kg/injection, schedule: Q04DX003 (ip), vehicle: saline sonified) 95 % of control; (dose: 200.0 mg/kg/injection, schedule: Q04DX003 (ip), vehicle: saline sonified) 95 % of control.

Consider `Cc1cc2nc3c(nc2cc1C)-c1ccccc1C3=O`, for which the T/C reads like this: under setting [10], 110 % of control; under setting [11], 100 % of control; under setting [12], 100 % of control.

In the case of `NC(Cc1ccc(O)cc1)C(=O)N/N=C/c1ccc(N(CCCl)CCCl)cc1` (stereo not drawn), the T/C reads like this: (dose: 18.0 mg/kg/injection, schedule: Q04DX003 (ip), vehicle: Klucel (hydroxypropylcellulose) (HPC)) 108 % of control; (dose: 26.0 mg/kg/injection, schedule: Q04DX003 (ip), vehicle: Klucel (hydroxypropylcellulose) (HPC)) 116 % of control; (dose: 60.0 mg/kg/injection, schedule: Q04DX003 (ip), vehicle: Klucel (hydroxypropylcellulose) (HPC)) 165 % of control; (dose: 90.0 mg/kg/injection, schedule: Q04DX003 (ip), vehicle: Klucel (hydroxypropylcellulose) (HPC)) 169 % of control; under setting [4], 165 % of control; (dose: 133.0 mg/kg/injection, schedule: Q04DX003 (ip), vehicle: Klucel (hydroxypropylcellulose) (HPC)) 170 % of control. The T/C was 192 % of control and 204 % of control under setting [6]; 166 % of control (dose: 300.0 mg/kg/injection, schedule: Q04DX003 (ip), vehicle: Klucel (hydroxypropylcellulose) (HPC)).

Take `C[n+]1c(-c2cc(Cl)cc(Cl)c2)c2cc([N+](=O)[O-])ccc2c2ccccc21`: the T/C is 120 % of control under setting [8]; 122 % of control (dose: 200.0 mg/kg/injection, schedule: Q04DX003 (ip), vehicle: water); 110 % of control (dose: 400.0 mg/kg/injection, schedule: Q04DX003 (ip), vehicle: water).

In the case of `CC(=O)Oc1cc(OCCCc2ccc(F)cc2)cc2ccc3ccccc3c12`, the T/C is, setting by setting: (dose: 25.0 mg/kg/injection, schedule: Q04DX002 (ip), vehicle: saline with Tween-80) 99 % of control; (dose: 50.0 mg/kg/injection, schedule: Q04DX002 (ip), vehicle: saline with Tween-80) 98 % of control; (dose: 100.0 mg/kg/injection, schedule: Q04DX002 (ip), vehicle: saline with Tween-80) 90 % of control.

With `Cc1[nH]nc(-c2ccon2)c1N`, the T/C is 115 % of control under setting [1], 119 % of control under setting [2] and 113 % of control under setting [9].

In the case of `O=C(O)CCC(=O)/C=C1/Nc2ccccc2C1=O`, the T/C is 110 % of control under setting [10] and 120 % of control under setting [11].

With `CCCCCCCCCOc1ccc(C=O)cc1OC`, the T/C runs as follows: (dose: 100.0 mg/kg/injection, schedule: Q01DX001 (ip), vehicle: saline sonified) 100 % of control; (dose: 200.0 mg/kg/injection, schedule: Q01DX001 (ip), vehicle: saline sonified) 90 % of control; (dose: 400.0 mg/kg/injection, schedule: Q01DX001 (ip), vehicle: saline sonified) 100 % of control.

As for `CC1=C(Cc2ccccc2)C(C)(C)CCC1`, the T/C was 103 % of control under setting [1], 112 % of control under setting [2] and 121 % of control under setting [9].

As to `CC(C)=C(CO)CCC(C)C`, the T/C was 109 % of control (dose: 50.0 mg/kg/injection, schedule: Q04DX003 (ip), vehicle: saline with Tween-80); 122 % of control under setting [10]; 118 % of control under setting [11].

On to `O=C(O)/C=C/c1c(Cl)cccc1Cl`, for which the T/C under setting [1] was 106 % of control and the T/C under setting [2] is 113 % of control.

Regarding `O=C1Nc2c(Cl)cc(Cl)cc2/C1=N/N=C/c1ccccc1O`, the T/C was 95 % of control (dose: 12.5 mg/kg/injection, schedule: Q01DX005 (ip), vehicle: saline with Tween-80); 95 % of control (dose: 25.0 mg/kg/injection, schedule: Q01DX005 (ip), vehicle: saline with Tween-80); 95 % of control (dose: 50.0 mg/kg/injection, schedule: Q01DX005 (ip), vehicle: saline with Tween-80).

In the case of `CC(=O)OCCCc1ccccc1`, the T/C is 109 % of control under setting [3]; 110 % of control under setting [4]; 104 % of control under setting [5]; 100 % of control under setting [6]; 95 % of control (dose: 400.0 mg/kg/injection, schedule: Q01DX009 (ip), vehicle: Klucel (hydroxypropylcellulose) (HPC)); 110 % of control under setting [7].

As to `Cc1cccc(/C=N\OCc2ccccc2)n1`, the T/C was 118 % of control under setting [10]; 104 % of control (dose: 132.0 mg/kg/injection, schedule: Q04DX003 (ip), vehicle: saline with Tween-80); 100 % of control under setting [11]; 108 % of control (dose: 300.0 mg/kg/injection, schedule: Q04DX003 (ip), vehicle: saline with Tween-80); 118 % of control under setting [12].

For `N#CC1OC(COC(=O)c2ccccc2)C(O)C1O` (stereo not drawn), the T/C under setting [1] was 101 % of control, the T/C under setting [2] was 94 % of control and the T/C under setting [9] is 88 % of control.
